The results in this text go back to patent US12109176B1, “Effect of glycerol on biofilm forming bacteria and fungi that changes the microbes sensitivity to pro and anti-biofilm non-toxic, non-bonded plasma amino acids and amino acid derivatives” (priority 2023, dated 2024).

Series [1] deals with fungal biofilm (C. albicans). As to the kind of experiment: Fungal biofilm inhibition assay. Format: cell-based, Candida albicans. The method, then:
(§1) Two types of biofilm assays were performed: an inhibition assay and a disruption assay. The inhibition assay assesses the compound's ability to prevent biofilm development, while the disruption assay assesses the compound's ability to break up an existing mature biofilm.
(§2) All bacterial biofilm solutions were prepared in Tryptic Soy Broth (TSB), supplemented with 1% glucose (henceforth referred to as TSB-G). All subsequent procedures were performed in a manner that maintained sterility. A solution of each amino acid or an amino acid derivative to be tested was prepared in weight to volume concentrations ranging from 0.1-5.0%. Amino acids and amino acid derivatives were also tested in combinations. Compound solutions were homogenized with gentle agitation in the dark (4° C., 24 hours) before use.
(§3) 32 Amino acids and 2 amino acid derivatives of the amino acid serine that occur freely in human blood were tested. […] 31 of the 32 amino acids that were tested were the L-Isomers. Glycine has no stereoisomers. The 2 amino acid derivatives, ethanolamine and phosphoethanolamine were also tested. All biofilm assays were performed using 384-well non-tissue culture-treated polystyrene plates. The fungal species tested are as follows: Candida albicans, Candida guilliermondii, Candida parapsilosis, Candida glabrata, Candida tropicalis and Candida dubliniensis. The bacterial species tested are as follows: Staphylococci (standard wild type and methicillin-resistant strain USA300), Escherichia coli, Pseudomonas aeruginosa and Staphylococcus epidermidis.
(§4) Fungal strains were streaked on Yeast Peptone Dextrose (YPD) agar plates and incubated at 30° C. for 48 hours. A single colony from each strain to be tested was inoculated into YPD broth and grown for 12 hours at 30° C., shaking at 225 rpm. […] The cells were allowed to adhere to the plate for 90 minutes at 37° C. with shaking (350 rpm). […] The plate was further incubated for 24 hours at 37° C. with shaking (350 rpm). Media was carefully aspirated and the biofilm was measured by optical density at 600 nm. […] The cells were allowed to adhere to the plate for 90 minutes at 37° C. with shaking (350 rpm). […] The plate was further incubated for 24 hours at 37° C. with shaking (350 rpm). […] The plate was further incubated for 24 hours at 37° C. with shaking (350 rpm). Media was carefully aspirated, and the biofilm was measured by optical density at 600 nm.

Series [2] relates to bacterial (S. aureus) biofilm. Description: Bacterial biofilm inhibition assay. Format: cell-based, Staphylococcus aureus.
Series [3] relates to bacterial biofilm. Description: In vitro testing on bacterial biofilm (inhibition and/or disruption). Format: cell-based. To be noted: in vitro testing.
Series [4] relates to fungal biofilm (C. albicans). Description: Fungal biofilm disruption assay. Format: cell-based, Candida albicans.
The test system of series [5] is bacterial (S. aureus) biofilm and fungal biofilm (C. albicans). Description: Biofilm inhibition assay, bacterial and fungal taken together. Format: cell-based. To be noted: for Neutral (square: Inhibition Biofilm Assay): symbol marks the assay.
The test system of series [6] is fungal biofilm. As to the kind of experiment: In vitro testing on fungal biofilm (inhibition and/or disruption). Format: cell-based. To be noted: in vitro testing. The procedure:
as §1, §2, §3, §4

Series [7] has as its system bacterial and fungal biofilm. Description: In vitro testing on bacterial and fungal biofilm (assay not told apart). To be noted: for effect on bacterial and fungal biofilm (in words): in vitro testing. Format: cell-based. The procedure:
as §1, §2, §3, §4
(§5) Bacterial strains were streaked on Blood Agar plates (5% sheep blood in Tryptic Soy Broth) and incubated at 37° C. for 24 hours. A single colony from each strain to be tested was inoculated in a TSB broth and grown for 12 hours, at 37° C. with shaking (225 rpm). For the bacterial biofilm inhibition assays, 1 μL of saturated overnight cell culture was added to either 80 μL of TSB-G, or TSB-G supplemented with the amino acid compound solution to be tested, in a 384-well plate. The cells were allowed to adhere to the plate for 60 minutes at 37° C. without shaking. The media was carefully aspirated and 80 μL of TSB-G, or TSB-G supplemented with the amino acid compound solution was added to the plate. The plate was further incubated for 24 hours at 37° C. without shaking. Media was carefully aspirated and the biofilm was measured by optical density at 600 nm. Eight or twelve replicates were performed for each tested condition and the reported values are normalized to the control (TSB-G media only). For the bacterial biofilm disruption assays, 80 µL of TSB-G was added to the plate, along with 1 μL of overnight cell culture. The cells were allowed to adhere to the plate for 60 minutes at 37° C. with no shaking. The media was carefully aspirated and 80 μL of TSB-G was added to the plate. The plate was further incubated for 24 hours at 37° C. with no shaking. Media was carefully aspirated from the mature biofilm and 80 μL of TSB-G, or TSB-G supplemented with the amino acid to be tested, was gently added to the plate.

Series [8] has as its system bacterial (S. aureus) biofilm. As to the kind of experiment: Bacterial biofilm disruption assay. Format: cell-based, Staphylococcus aureus.
The test system of series [9] is bacterial (S. aureus) biofilm and fungal biofilm (C. albicans). Description: Biofilm disruption assay, bacterial and fungal taken together. Format: cell-based. The procedure:
as §1, §2, §3, §4, §5

Series [10] in a line: Thermal degradation in hot aqueous solution. Format: physicochemical. To be noted: water at about 90 C. to 100 C.
Text: In order to promote the dissolution of the various amino acids in water, the water is usually maintained at a temperature of about 90 C. to 100 C.
For series [11] the following is noted: in vivo.
Setting [12] is: Table F, in the presence of a sufficient concentration of glycerol.
[13] abbreviates: Table D, bacterial and fungal biofilm.

With `N[C@@H](CCC(=O)O)C(=O)O` [Glutamic Acid, L-glutamic acid], the “Reduce or Inhibit F Biofilm (squares: Inhibition Biofilm Assay)” value in [1] (Table D, 0.1 to 5.0%) was “▪▪ (Two squares [ie. ▪▪] signifies a major effect (greater than about 50%), on the Inhibition Biofilm Assay)”; in series [1] (setting [12]) it was “▪▪ (Two squares [ie. ▪▪] signifies a major effect (greater than about 50%), on the Inhibition Biofilm Assay)”. Besides, the “Reduce or Inhibit B Biofilm (squares: Inhibition Biofilm Assay)” value in series [2] (Table D, 0.1 to 5.0%) was “▪▪ (Two squares [ie. ▪▪] signifies a major effect (greater than about 50%), on the Inhibition Biofilm Assay)”; in [2] (setting [12]) it was “▪▪ (Two squares [ie. ▪▪] signifies a major effect (greater than about 50%), on the Inhibition Biofilm Assay)”. Besides, in series [3], the “effect on bacterial biofilm (in words)” value is listed as “antibacterial biofilm effect”. Further, the “Reduce or Inhibit F Biofilm (dots: Disruption Biofilm Assay)” value in series [4] (Table D, 0.1 to 5.0%) is “●● (Two dots [ie. ●●] signifies a major effect (greater than about 50%), on the Disruption Biofilm Assay)”; in [4] (setting [12]), “●● (Two dots [ie. ●●] signifies a major effect (greater than about 50%), on the Disruption Biofilm Assay)”. Also, the “Reduce Both (squares: Inhibition Biofilm Assay)” value is “▪▪ (Two squares [ie. ▪▪] signifies a major effect (greater than about 50%), on the Inhibition Biofilm Assay)” in series [5] (setting [13]) and “▪▪ (Two squares [ie. ▪▪] signifies a major effect (greater than about 50%), on the Inhibition Biofilm Assay)” in [5] (setting [12]). Also, the “effect on fungal biofilm (in words)” value in [6] is reported as “antifungal biofilm effects”. Besides, the “ideal concentration for antibiofilm effect” value in [7] (in the absence of glycerol on in vitro testing) came out at 0.5 g %. Further, the “effect on bacterial and fungal biofilm (in words)” value in series [7] was “very active against both bacterial and fungal biofilm”; in [7] (listed as Glutamic acid), “strong effect on biofilm-forming bacteria and fungi in reducing biofilm formation”. Besides, the “concentration of maximum (ideal) antibiofilm effect” value in [7] (tested on its own, without glycerol) turned out to be 0.5%. The “Reduce or Inhibit B Biofilm (dots: Disruption Biofilm Assay)” value was “●● (Two dots [ie. ●●] signifies a major effect (greater than about 50%), on the Disruption Biofilm Assay)” in series [8] (Table D, 0.1 to 5.0%) and “●● (Two dots [ie. ●●] signifies a major effect (greater than about 50%), on the Disruption Biofilm Assay)” in [8] (setting [12]). Besides, the “Reduce Both (dots: Disruption Biofilm Assay)” value in series [9] (setting [13]) is “●● (Two dots [ie. ●●] signifies a major effect (greater than about 50%), on the Disruption Biofilm Assay)”; in series [9] (setting [12]), “●● (Two dots [ie. ●●] signifies a major effect (greater than about 50%), on the Disruption Biofilm Assay)”.
In the case of `NC(=O)CC[C@H](N)C(=O)O` [Glutamine, L-glutamine], the “thermal stability in aqueous solution” value in series [10] was “too susceptible to thermal degradation”. Besides, the “Neutral (square: Inhibition Biofilm Assay)” value was “▪ (Single square [ie. ▪] signifies little effect on the Inhibition Biofilm Assay (from about 10 to less than 30%))” in series [5] (Table D, Neutral = no effect on the biofilm); “▪ (Single square [ie. ▪] signifies little effect on the Inhibition Biofilm Assay (from about 10 to less than 30%))” in series [5] (Table E, in the absence of an infusion of glycerol); “▪ (Single square [ie. ▪] signifies little effect on the Inhibition Biofilm Assay (from about 10 to less than 30%))” in series [5] (setting [12]).
Consider `OCC(O)CO` [glycerol], for which, in [11], the “toxicity of the glycerol infusion” value is listed as “non-toxic to humans”. In addition, the “effect on bacterial and fungal biofilm (in words)” value in [7] is on record as “not found to have antibiofilm effect”.
